Assay results published in patent publication US10717730B1, “Dihydroisoquinoline compound” (SUZHOU ARK BIOPHARMACEUTICAL CO., LTD., priority 2017, dated 2020).

Legend:
HBsAg = HBsAg assay (secreted HBsAg by CLIA in HepG2.2.15 cells); assay type: cell-based, hepatitis B virus (HBV); settings: Hepatitis B virus, HepG2.2.15, 96 h
Experimental: HepG2.2.15 cells (Sells et al, Proc Natl Acad Sci USA. 1987 February; 84(4):1005-9), a constitutively HBV-expressing cell line, were cultured in DMEM medium supplemented with 10% FBS and 400 μg/mL G418, and maintained in 5% CO2 at 37° C.
HepG2.2.15 cells were seeded into 96-well plates at 3×10^4 cells/well. The next day, the cells were treated with a five-fold serial dilution series of the compound in DMSO. The final DMSO concentration in all wells was 0.5% and 0.5% DMSO was used as no drug control. After four days of incubation with compounds, the supernatants were harvested and measured for HBsAg concentration
The HBsAg chemiluminescence immunoassay (CLIA) kit was used to measure the levels of secreted HBsAg. Specifically, 50 μL of culture supernatant was transferred to the CLIA assay plate and 50 μL of enzyme conjugate reagent was added into each well. The plates were sealed and incubated for 1 hour at room temperature. The supernatant-enzyme-mixture was discarded and wells were washed for 6 times. The residual liquid was removed by plating on tissue paper. 25 μL of substrate A and B were added into each well. Luminance was measured using a spectrometer (Tecan Infinite® F200) after 10 minutes incubation. IC50 value was extrapolated based the dose-response curves generated from the data.

[1] = Cytotoxicity CC50 (CellTiter-Glo); assay type: cell-based; settings: human; HepG2.2.15 cells, four days
Experimental: HepG2.2.15 cells were seeded into 96-well white plate at 5000 cells/well and treated with serially diluted compounds. The plates were incubated in incubator with 5% CO2 at 37° C. for four days. The plate was taken out of incubator and adapted to room temperature for 30 minutes, followed by adding 25 μl CellTiter-Glo (Promega) reagent into each well and votexed at room temperature before being measured for luminance using spectrometer (Tecan Infinite® F200). The CC50 of each compound was defined as the compound concentration at which the treated well's cell viability is 50% compared to that of the DMSO treated well.

SMILES | IC50 (HBsAg) [nM] | CC50 at 4 days [1] [nM]
CCOC(=O)c1cn2c(cc1=O)-c1cc(OC)c(-c3ccc(=O)n(C(C)C(=O)OCC)c3)cc1CC2C(C)(C)C (centres unmarked) [Example 74, Ethyl 6-(tert-butyl)-9-(1-(1-ethoxy-1-oxoprop-2-yl)-6-oxo-1,6-dihydro-pyridin-3-yl)-10-methoxy-2-oxo-6,7-dihydro-2H-pyrido[2,1-a]isoquinoline-3-carboxylate] | 129 | 50000 to 100000
COc1cc2c(cc1-c1ccc(N3CCC(O)CC3)nc1)CC(C(C)(C)C)n1cc(C(=O)O)c(=O)cc1-2 (centres unmarked) [Example 51, 6-(tert-butyl)-9-(6-(4-hydroxypiperidin-1-yl)pyridin-3-yl)-10-methoxy-2-oxo-6,7-dihydro-2H-pyrido[2,1-a]isoquinoline-3-carboxylic acid] | 0.8 | > 100000
COc1cc2c(cc1-c1ccc(C)nc1)CC(C(C)(C)C)n1cc(C(=O)O)c(=O)cc1-2 (centres unmarked) [Example 37, 6-(tert-butyl)-10-methoxy-9-(6-methylpyridin-3-yl)-2-oxo-6,7-dihydro-2H-pyrido[2,1-a]isoquinoline-3-carboxylic acid] | 9 | 50000 to 100000
COc1cc2c(cc1-c1ccc(N3CCC3)nc1)CC(C(C)(C)C)n1cc(C(=O)O)c(=O)cc1-2 (centres unmarked) [Example 50, 9-(6-(azetidin-1-yl)pyridin-3-yl)-6-(tert-butyl)-10-methoxy-2-oxo-6,7-dihydro-2H-pyrido[2,1-a]isoquinoline-3-carboxylic acid] | 0.5 | 50000 to 100000
CNc1ncc(-c2cc3c(cc2OC)-c2cc(=O)c(C(=O)O)cn2C(C(C)(C)C)C3)cn1 (centres unmarked) [Example 60, 6-(tert-butyl)-10-methoxy-9-(2-(methylamino)pyrimidin-5-yl)-2-oxo-6,7-dihydro-2H-pyrido[2,1-a]isoquinoline-3-carboxylic acid] | 0.1 | 50000 to 100000
CCOC(=O)CCn1cc(-c2cc3c(cc2OC)-c2cc(=O)c(C(=O)OCC)cn2C(C(C)(C)C)C3)ccc1=O (centres unmarked) [Example 72, Ethyl 6-(tert-butyl)-9-(1-(3-ethoxy-3-oxopropyl)-6-oxo-1,6-dihydropyridin-3-yl)-10-methoxy-2-oxo-6,7-dihydro-2H-pyrido[2,1-a]isoquinoline-3-carboxylate] | 565 | 50000 to 100000
CCOC(=O)CCCn1cc(-c2cc3c(cc2OC)-c2cc(=O)c(C(=O)OCC)cn2C(C(C)(C)C)C3)ccc1=O (centres unmarked) [Example 75, Ethyl 6-(tert-butyl)-9-(1-(4-ethoxy-4-oxobutyl)-6-oxo-1,6-dihydropyridin-3-yl)-10-methoxy-2-oxo-6,7-dihydro-2H-pyrido[2,1-a]isoquinoline-3-carboxylate] | 466 | 50000 to 100000
CCOC(=O)CCn1cc(-c2cc3c(cc2OC)-c2cc(=O)c(C(=O)OCC)cn2C(C(C)(C)C)C3)cn1 (centres unmarked) [Example 21, Ethyl 6-(tert-butyl)-9-(1-(3-ethoxy-3-oxopropyl)-1H-pyrazol-4-yl)-10-methoxy-2-oxo-6,7-dihydro-2H-pyrido[2,1-a]isoquinoline-3-carboxylate] | 16 | 50000 to 100000
COc1cc2c(cc1-c1c(C)cnn1C)CC(C(C)(C)C)n1cc(C(=O)O)c(=O)cc1-2 (centres unmarked) [Example 19, 6-(tert-butyl)-9-(1,4-dimethyl-1H-pyrazol-5-yl)-10-methoxy-2-oxo-6,7-dihydro-2H-pyrido[2,1-a]isoquinoline-3-carboxylic acid] | 68 | 50000 to 100000
COc1cc2c(cc1-c1cnn(CCCC(=O)O)c1)CC(C(C)(C)C)n1cc(C(=O)O)c(=O)cc1-2 (centres unmarked) [Example 24, 6-(tert-butyl)-9-(1-(3-carboxypropyl)-1H-pyrazol-4-yl)-10-methoxy-2-oxo-6,7-dihydro-2H-pyrido[2,1-a]isoquinoline-3-carboxylic acid] | 8 | 50000 to 100000
COc1cc2c(cc1-c1ccnn1C(C)C)CC(C(C)(C)C)n1cc(C(=O)O)c(=O)cc1-2 (centres unmarked) [Example 18, 6-(tert-butyl)-9-(1-isopropyl-1H-pyrazol-5-yl)-10-methoxy-2-oxo-6,7-dihydro-2H-pyrido[2,1-a]isoquinoline-3-carboxylic acid] | 77 | 50000 to 100000
CCN1CCN(c2ncc(-c3cc4c(cc3OC)-c3cc(=O)c(C(=O)O)cn3C(C(C)(C)C)C4)cn2)CC1 (centres unmarked) [Example 63, 6-(tert-butyl)-9-(2-(4-ethylpiperazin-1-yl)pyrimidin-5-yl)-10-methoxy-2-oxo-6,7-dihydro-2H-pyrido[2,1-a]isoquinoline-3-carboxylic acid] | 27 | 50000 to 100000
COc1cc2c(cc1-c1cnn(CCC(=O)O)c1)CC(C(C)(C)C)n1cc(C(=O)O)c(=O)cc1-2 (centres unmarked) [Example 22, 6-(tert-butyl)-9-(1-(2-carboxyethyl)-1H-pyrazol-4-yl)-10-methoxy-2-oxo-6,7-dihydro-2H-pyrido[2,1-a]isoquinoline-3-carboxylic acid] | 7 | 50000 to 100000
COc1cc2c(cc1-c1cnc(C)s1)CC(C(C)(C)C)n1cc(C(=O)O)c(=O)cc1-2 (centres unmarked) [Example 28, 6-(tert-butyl)-10-methoxy-9-(2-methylthiazol-5-yl)-2-oxo-6,7-dihydro-2H-pyrido[2,1-a]isoquinoline-3-carboxylic acid] | 0.2 | > 100000
COc1cc2c(cc1-c1cnn(CC(=O)O)c1)CC(C(C)(C)C)n1cc(C(=O)O)c(=O)cc1-2 (centres unmarked) [Example 20, 6-(tert-butyl)-9-(1-carboxymethyl-1H-pyrazol-4-yl)-10-methoxy-2-oxo-6,7-dihydro-2H-pyrido[2,1-a]isoquinoline-3-carboxylic acid] | 7 | > 100000
CCOC(=O)c1cn2c(cc1=O)-c1cc(OC)c(-c3ccc(=O)n(C(C)(C)C(=O)OCC)c3)cc1CC2C(C)(C)C (centres unmarked) [Example 70, Ethyl 6-(tert-butyl)-9-(1-(1-ethoxy-2-methyl-1-oxoprop-2-yl)-6-oxo-1,6-dihydropyridin-3-yl)-10-methoxy-2-oxo-6,7-dihydro-2H-pyrido[2,1-a]isoquinoline-3-carboxylate] | 44 | 50000 to 100000
COc1cc2c(cc1-c1ncn(CCCO)n1)CC(C(C)(C)C)n1cc(C(=O)O)c(=O)cc1-2 (centres unmarked) [Example 32, 6-(tert-butyl)-9-(1-(3-hydroxypropyl)-1H-1,2,4-triazol-3-yl)-10-methoxy-2-oxo-6,7-dihydro-2H-pyrido[2,1-a]isoquinoline-3-carboxylic acid] | 97 | 50000 to 100000
COc1cc2c(cc1-c1nncn1CCCO)CC(C(C)(C)C)n1cc(C(=O)O)c(=O)cc1-2 (centres unmarked) [Example 31, 6-(tert-butyl)-9-(4-(3-hydroxypropyl)-4H-1,2,4-triazol-3-yl)-10-methoxy-2-oxo-6,7-dihydro-2H-pyrido[2,1-a]isoquinoline-3-carboxylic acid] | 826 | 50000 to 100000
COc1cc2c(cc1-c1cnc(N3CCC(C(=O)O)CC3)nc1)CC(C(C)(C)C)n1cc(C(=O)O)c(=O)cc1-2 (centres unmarked) [Example 73, 6-(tert-butyl)-9-(2-(4-carboxypiperidin-1-yl)pyrimidin-5-yl)-10-methoxy-2-oxo-6,7-dihydro-2H-pyrido[2,1-a]isoquinoline-3-carboxylic acid] | 67 | > 100000
COc1cc2c(cc1-c1c[nH]nc1C)CC(C(C)(C)C)n1cc(C(=O)O)c(=O)cc1-2 (centres unmarked) [Example 25, 6-(tert-butyl)-10-methoxy-9-(3-methyl-1H-pyrazol-4-yl)-2-oxo-6,7-dihydro-2H-pyrido[2,1-a]isoquinoline-3-carboxylic acid] | 7 | 50000 to 100000
CCOC(=O)Cn1cc(-c2cc3c(cc2OC)-c2cc(=O)c(C(=O)OCC)cn2C(C(C)(C)C)C3)ccc1=O (centres unmarked) [Example 71, Ethyl 6-(tert-butyl)-9-(1-(2-ethoxy-2-oxoethyl)-6-oxo-1,6-dihydropyridin-3-yl)-10-methoxy-2-oxo-6,7-dihydro-2H-pyrido[2,1-a]isoquinoline-3-carboxylate] | 192 | > 100000
COc1cc2c(cc1-c1cnc(N3CCC3)nc1)CC(C(C)(C)C)n1cc(C(=O)O)c(=O)cc1-2 (centres unmarked) [Example 69, 9-(2-(azetidin-1-yl)pyrimidin-5-yl)-6-(tert-butyl)-10-methoxy-2-oxo-6,7-dihydro-2H-pyrido[2,1-a]isoquinoline-3-carboxylic acid] | 5 | 50000 to 100000
